Test results reported in patent publication US20070167424A1, “Aztreonam L-lysine and methods for the preparation thereof” (priority 2003, published 2007).

Key:
[1] = Storage stability: impurity content by HPLC after storage; type: physicochemical
Protocol: (§1) The Aztreonam L-lysine obtained using these methods was stable in the sense that during 3 months at 2-8° C.:
2. no impurity exceed 0.3 area %.
The impurity content of Aztreonam lysine salt using the HPLC method is determined as follows:
a. Aztreonam Lysine salt sample is dissolved in 0.02 M KH2PO4 buffer solution (pH adjusted 2.0 with 25 w/w % phosphoric acid) diluent,
b. The sample solution (ca. 10 μl) is injected into a 100.0 mm×4.0 mm, 3 μm RP-1 8 HPLC column,
c. Gradient eluting with a mixture of 0.02 M KH2PO4 buffer solution (pH adjusted 3.0 with 25 w/w % phosphoric acid) (A) and acetonitrile (B) according to the following profile:
d. The amounts of each impurity was measured at 230 nm wavelength with a UV detector and appropriate recording device.
e. The amount of each impurity was calculated referring to an Aztreonam working standard at a concentration of […].
In the above method, Aztreonam has a retention time of about 10.2 minutes.

[2] = Storage stability: assay of Aztreonam by HPLC after storage; type: physicochemical
Protocol: as §1
1. the assay of Aztreonam was maintained constant in the limit 60-66%; and The assay of Aztreonam Lysine salt using the HPLC method was determined as follows: a. Dissolving Aztreonam Lysine salt sample in a mixture of 0.02 M KH2PO4 buffer solution (pH adjusted 3.0 with 25 w/w % phosphoric acid) and methanol (80:20) diluent, b. Injecting the sample solution (ca. 10 μl) into a 50.0 mm×4.6 mm, 3 μm RP-18 HPLC column, c. Isocratic eluting at 1.5 ml/min with a mixture of 0.02 M KH2PO4 buffer solution (pH adjusted 3.0 with 25 w/w % phosphoric acid) and methanol in a 83:17 v/v % ratio. d. Measuring of the amounts of each impurity at 270 nm wavelength with a UV detector and appropriate recording device. e. Calculating of the assay referring to the Aztreonam working standard at a concentration of 100 [g/ml.
In the above method, Aztreonam has a retention time of about 2.3 minutes

[3] = after storage for three months at about 2-8° C.

Compound	no impurity exceed (largest single impurity) ([1]; during 3 months at 2-8° C.) [area %]	assay of Aztreonam maintained constant in the limit ([2]; during 3 months at 2-8° C.)	does not contain any impurity exceeding [1, 3] [area %]	maintains at least about ... of the Aztreonam [2, 3]
C[C@H]1[C@H](NC(=O)/C(=N\OC(C)(C)C(=O)O)c2csc(N)n2)C(=O)N1S(=O)(=O)O.NCCCC[C@H](N)C(=O)O [Aztreonam L-lysine]	≤ 0.3	60-66%	–	–
C[C@H]1[C@H](NC(=O)/C(=N\OC(C)(C)C(=O)O)c2csc(N)n2)C(=O)N1S(=O)(=O)O.NCCCC[C@H](N)C(=O)O [Example 2, Aztreonam L-lysine salt]	–	–	≤ 0.3	at least 63 weight %
